# “And” between values parts separate entries of the source, which are not always exact repeats. Equal values may be shown once.
# Key:
# [1] = molecular target: T1, Sodium channel protein type 4 subunit alpha (Homo sapiens, UniProt P35499); experiment: Inhibition of human Nav1.4 expressed in HEK293 cells by electrophysiology assay; type: cell-based
# [2] = molecular target: Sodium channel protein type 9 subunit alpha (Rattus norvegicus, UniProt O08562); experiment: Inhibition of rat Nav1.7 expressed in HEK293 cells by electrophysiology assay; type: cell-based
# [3] = molecular target: T2, Sodium channel protein type 2 subunit alpha (Homo sapiens, UniProt Q99250); experiment: Inhibition of human Nav1.2 expressed in HEK293 cells by electrophysiology assay; type: cell-based
# [4] = molecular target: T3, Sodium channel protein type 8 subunit alpha (Homo sapiens, UniProt Q9UQD0); experiment: Binding affinity to human recombinant Nav1.6 by radioligand binding assay
# [5] = molecular target: T4, Sodium channel protein type 5 subunit alpha (Homo sapiens, UniProt Q14524); experiment: Binding affinity to human recombinant Nav1.5 by radioligand binding assay
# [6] = Ratio of plasma concentration in mouse model of CFA-induced pain at 60 mg/kg, po during Hargreaves test to IC50 for inhibition of mouse Nav1.7 expressed in HEK293 cells by electrophysiology assay; type: organism-based; conditions: in vivo
# [7] = molecular target: Sodium channel protein type 10 subunit alpha (Mus musculus, UniProt Q6QIY3); experiment: Binding affinity to mouse Nav1.8 […] by radioligand binding assay
# [8] = Ratio of unbound plasma concentration in mouse model of inherited erythromelalgia to Kd for binding affinity to recombinant human Nav1.7 by radioligand binding assay; type: ADME; conditions: in vivo
# [9] = molecular target: T5, Sodium channel protein type 3 subunit alpha (Homo sapiens, UniProt Q9NY46); experiment: Binding affinity to human recombinant Nav1.3 by radioligand binding assay
# [10] = Plasma concentration in mouse model of CFA-induced pain at 60 mg/kg, po during Hargreaves test; type: ADME, organism-based; conditions: in vivo
# [11] = Plasma concentration in mouse model of pain at 60 mg/kg, po during hot plate test; type: ADME, organism-based; conditions: in vivo
# [12] = Unbound fraction in mouse plasma; type: ADME, cell-free
# [13] = Ratio of plasma concentration in mouse model of pain at 60 mg/kg, po during hot plate test to IC50 for inhibition of mouse Nav1.7 expressed in HEK293 cells by electrophysiology assay; type: organism-based; conditions: in vivo
# [14] = molecular target: T1, Sodium channel protein type 4 subunit alpha; experiment: Binding affinity to human recombinant Nav1.4 by radioligand binding assay
# [15] = Plasma concentration in mouse model of capsaicin-induced pain at 60 mg/kg, po during von Frey test; type: ADME, organism-based; conditions: in vivo
# [16] = molecular target: T2, Sodium channel protein type 2 subunit alpha; experiment: Binding affinity to human recombinant Nav1.2 by radioligand binding assay
# [17] = species on record: Homo sapiens; experiment: Selectivity ratio of Kd for binding affinity to human recombinant Nav1.4 by radioligand binding assay to Kd for binding affinity to human recombinant Nav1.7 by radioligand binding assay
# [18] = Ratio of unbound plasma concentration in mouse model of formalin-induced pain to Kd for binding affinity to mouse Nav1.7 by radioligand binding assay; type: ADME; conditions: in vivo
# [19] = molecular target: Sodium channel protein type 9 subunit alpha (Mus musculus, UniProt Q62205); experiment: Binding affinity to mouse Nav1.7 by radioligand binding assay
# [20] = Plasma concentration in mouse model of pain at 60 mg/kg, po during tail immersion test; type: ADME, organism-based; conditions: in vivo
# [21] = Ratio of plasma concentration in mouse model of pain at 60 mg/kg, po during tail immersion test to IC50 for inhibition of mouse Nav1.7 expressed in HEK293 cells by electrophysiology assay; type: organism-based; conditions: in vivo
# [22] = Plasma concentration in mouse model of pain at 60 mg/kg, po during Randall-Selitto test; type: ADME, organism-based; conditions: in vivo
# [23] = species on record: Homo sapiens; experiment: Selectivity ratio of Kd for binding affinity to human recombinant Nav1.6 by radioligand binding assay to Kd for binding affinity to human recombinant Nav1.7 by radioligand binding assay
# [24] = species on record: Homo sapiens; experiment: Selectivity ratio of Kd for binding affinity to human recombinant Nav1.1 by radioligand binding assay to Kd for binding affinity to human recombinant Nav1.7 by radioligand binding assay
# [25] = Ratio of plasma concentration in mouse model of capsaicin-induced pain at 60 mg/kg, po during von Frey test to IC50 for inhibition of mouse Nav1.7 expressed in HEK293 cells by electrophysiology assay; type: organism-based; conditions: in vivo
# [26] = Ratio of plasma concentration in mouse model of pain at 60 mg/kg, po during Randall-Selitto test to IC50 for inhibition of mouse Nav1.7 expressed in HEK293 cells by electrophysiology assay; type: organism-based; conditions: in vivo
# [27] = species on record: Homo sapiens; experiment: Selectivity ratio of Kd for binding affinity to human recombinant Nav1.5 by radioligand binding assay to Kd for binding affinity to human recombinant Nav1.7 by radioligand binding assay
# [28] = Ratio of unbound plasma concentration in mouse model of CFA-induced cold allodynia to Kd for binding affinity to mouse Nav1.7 by radioligand binding assay; type: ADME; conditions: in vivo
# [29] = species on record: Homo sapiens; experiment: Selectivity ratio of Kd for binding affinity to human recombinant Nav1.3 by radioligand binding assay to Kd for binding affinity to human recombinant Nav1.7 by radioligand binding assay
# [30] = Ratio of unbound plasma concentration in mouse model of STZ-induced pain measured on day 1 to Kd for binding affinity to mouse Nav1.7 by radioligand binding assay; type: ADME; conditions: in vivo
# [31] = molecular target: T6, Sodium channel protein type 1 subunit alpha (Homo sapiens, UniProt P35498); experiment: Binding affinity to human recombinant Nav1.1 by radioligand binding assay
# [32] = Ratio of unbound plasma concentration in mouse model of SNI-induced pain to Kd for binding affinity to mouse Nav1.7 by radioligand binding assay; type: ADME; conditions: in vivo
# [33] = species on record: Homo sapiens; experiment: Selectivity ratio of Kd for binding affinity to human recombinant Nav1.2 by radioligand binding assay to Kd for binding affinity to human recombinant Nav1.7 by radioligand binding assay
# [34] = species on record: Homo sapiens; experiment: Selectivity index, ratio of IC50 for inhibition of human Nav1.4 expressed in HEK293 cells by electrophysiology assay to IC50 for inhibition of human Nav1.7 expressed in HEK293 cells by electrophysiology assay; type: cell-based
# [35] = Ratio of unbound plasma concentration in mouse model of histamine-induced pain to IC50 for inhibition of mouse Nav1.7 expressed in HEK293 cells by electrophysiology assay; type: cell-based
# [36] = molecular target: T5, Sodium channel protein type 3 subunit alpha; experiment: Inhibition of human Nav1.3 expressed in HEK293 cells by electrophysiology assay; type: cell-based
# [37] = molecular target: T4, Sodium channel protein type 5 subunit alpha; experiment: Inhibition of human Nav1.5 expressed in HEK293 cells by electrophysiology assay; type: cell-based
# [38] = molecular target: T3, Sodium channel protein type 8 subunit alpha; experiment: Inhibition of human Nav1.6 expressed in HEK293 cells by electrophysiology assay; type: cell-based
# [39] = species on record: Homo sapiens; experiment: Selectivity index, ratio of IC50 for inhibition of human Nav1.5 expressed in HEK293 cells by electrophysiology assay to IC50 for inhibition of human Nav1.7 expressed in HEK293 cells by electrophysiology assay; type: cell-based
# [40] = species on record: Homo sapiens; experiment: Selectivity index, ratio of IC50 for inhibition of human Nav1.1 expressed in HEK293 cells by electrophysiology assay to IC50 for inhibition of human Nav1.7 expressed in HEK293 cells by electrophysiology assay; type: cell-based
# [41] = species on record: Homo sapiens; experiment: Selectivity index, ratio of IC50 for inhibition of human Nav1.3 expressed in HEK293 cells by electrophysiology assay to IC50 for inhibition of human Nav1.7 expressed in HEK293 cells by electrophysiology assay; type: cell-based
# [42] = molecular target: T6, Sodium channel protein type 1 subunit alpha; experiment: Inhibition of human Nav1.1 expressed in HEK293 cells by electrophysiology assay; type: cell-based
# [43] = Ratio of unbound plasma concentration in mouse model of capsaicin-induced pain to IC50 for inhibition of mouse Nav1.7 expressed in HEK293 cells by electrophysiology assay; type: cell-based
# [44] = species on record: Homo sapiens; experiment: Selectivity index, ratio of IC50 for inhibition of human Nav1.2 expressed in HEK293 cells by electrophysiology assay to IC50 for inhibition of human Nav1.7 expressed in HEK293 cells by electrophysiology assay; type: cell-based
# [45] = species on record: Homo sapiens; experiment: Selectivity index, ratio of IC50 for inhibition of human Nav1.6 expressed in HEK293 cells by electrophysiology assay to IC50 for inhibition of human Nav1.7 expressed in HEK293 cells by electrophysiology assay; type: cell-based
# [46] = species on record: Homo sapiens; experiment: Selectivity index, ratio of IC50 for inhibition of human Nav1.8 expressed in HEK293 cells by electrophysiology assay to IC50 for inhibition of human Nav1.7 expressed in HEK293 cells by electrophysiology assay; type: cell-based
# [47] = molecular target: Sodium channel protein type 9 subunit alpha (Homo sapiens, UniProt Q15858); experiment: Inhibition of human Nav1.7 expressed in HEK293 cells by electrophysiology assay; type: cell-based
# [48] = molecular target: Sodium channel protein type 10 subunit alpha (Homo sapiens, UniProt Q9Y5Y9); experiment: Inhibition of human Nav1.8 expressed in HEK293 cells by electrophysiology assay; type: cell-based
# T3 sequence (Q9UQD0 whole entry): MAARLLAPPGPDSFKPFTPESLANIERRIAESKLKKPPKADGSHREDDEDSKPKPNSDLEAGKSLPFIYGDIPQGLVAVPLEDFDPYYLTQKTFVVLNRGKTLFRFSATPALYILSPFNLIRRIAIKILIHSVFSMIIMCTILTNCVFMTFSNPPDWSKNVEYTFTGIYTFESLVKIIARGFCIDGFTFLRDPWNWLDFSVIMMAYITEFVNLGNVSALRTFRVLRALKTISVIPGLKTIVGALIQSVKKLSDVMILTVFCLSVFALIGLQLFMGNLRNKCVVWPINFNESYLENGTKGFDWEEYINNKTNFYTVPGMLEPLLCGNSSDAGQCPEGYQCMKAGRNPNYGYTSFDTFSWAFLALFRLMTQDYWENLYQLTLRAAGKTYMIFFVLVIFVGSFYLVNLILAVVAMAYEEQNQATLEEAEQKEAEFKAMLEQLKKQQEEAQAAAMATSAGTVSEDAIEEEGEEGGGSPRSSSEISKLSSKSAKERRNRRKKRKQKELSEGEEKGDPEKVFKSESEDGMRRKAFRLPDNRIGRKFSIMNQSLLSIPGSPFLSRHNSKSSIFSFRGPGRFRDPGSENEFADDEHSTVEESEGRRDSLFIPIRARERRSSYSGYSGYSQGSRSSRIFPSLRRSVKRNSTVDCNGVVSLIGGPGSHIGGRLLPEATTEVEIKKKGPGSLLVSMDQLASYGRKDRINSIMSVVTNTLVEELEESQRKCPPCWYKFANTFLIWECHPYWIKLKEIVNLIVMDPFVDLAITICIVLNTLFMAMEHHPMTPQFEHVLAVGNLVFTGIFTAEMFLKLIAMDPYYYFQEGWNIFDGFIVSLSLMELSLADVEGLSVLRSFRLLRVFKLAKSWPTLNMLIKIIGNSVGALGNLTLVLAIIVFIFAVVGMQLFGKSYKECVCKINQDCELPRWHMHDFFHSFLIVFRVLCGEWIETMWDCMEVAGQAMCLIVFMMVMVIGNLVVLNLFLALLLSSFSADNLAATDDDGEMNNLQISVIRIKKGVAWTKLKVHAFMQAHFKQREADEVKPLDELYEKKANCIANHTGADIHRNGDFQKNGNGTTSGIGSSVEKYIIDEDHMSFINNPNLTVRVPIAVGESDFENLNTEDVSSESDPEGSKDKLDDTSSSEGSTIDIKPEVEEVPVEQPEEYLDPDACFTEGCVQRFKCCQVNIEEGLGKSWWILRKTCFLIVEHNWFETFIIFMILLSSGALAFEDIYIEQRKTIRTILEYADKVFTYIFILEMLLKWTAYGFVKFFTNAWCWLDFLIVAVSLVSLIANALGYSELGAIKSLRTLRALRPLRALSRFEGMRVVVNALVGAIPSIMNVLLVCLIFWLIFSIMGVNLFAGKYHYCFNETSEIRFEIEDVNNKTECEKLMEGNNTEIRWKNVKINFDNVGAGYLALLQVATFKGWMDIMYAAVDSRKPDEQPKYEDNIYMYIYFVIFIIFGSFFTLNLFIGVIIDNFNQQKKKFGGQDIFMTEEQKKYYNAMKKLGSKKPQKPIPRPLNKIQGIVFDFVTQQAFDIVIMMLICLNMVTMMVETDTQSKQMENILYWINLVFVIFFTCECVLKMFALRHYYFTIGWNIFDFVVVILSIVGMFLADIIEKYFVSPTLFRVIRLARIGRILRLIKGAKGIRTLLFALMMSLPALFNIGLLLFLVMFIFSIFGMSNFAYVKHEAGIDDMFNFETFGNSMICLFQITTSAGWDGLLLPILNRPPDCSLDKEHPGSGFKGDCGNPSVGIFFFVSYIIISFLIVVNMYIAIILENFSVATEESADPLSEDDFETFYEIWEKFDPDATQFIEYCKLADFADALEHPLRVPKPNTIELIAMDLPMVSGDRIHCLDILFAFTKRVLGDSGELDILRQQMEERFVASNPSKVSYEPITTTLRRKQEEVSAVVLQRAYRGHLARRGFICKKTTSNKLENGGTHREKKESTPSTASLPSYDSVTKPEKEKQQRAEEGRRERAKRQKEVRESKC
# T2 sequence (Q99250 whole entry): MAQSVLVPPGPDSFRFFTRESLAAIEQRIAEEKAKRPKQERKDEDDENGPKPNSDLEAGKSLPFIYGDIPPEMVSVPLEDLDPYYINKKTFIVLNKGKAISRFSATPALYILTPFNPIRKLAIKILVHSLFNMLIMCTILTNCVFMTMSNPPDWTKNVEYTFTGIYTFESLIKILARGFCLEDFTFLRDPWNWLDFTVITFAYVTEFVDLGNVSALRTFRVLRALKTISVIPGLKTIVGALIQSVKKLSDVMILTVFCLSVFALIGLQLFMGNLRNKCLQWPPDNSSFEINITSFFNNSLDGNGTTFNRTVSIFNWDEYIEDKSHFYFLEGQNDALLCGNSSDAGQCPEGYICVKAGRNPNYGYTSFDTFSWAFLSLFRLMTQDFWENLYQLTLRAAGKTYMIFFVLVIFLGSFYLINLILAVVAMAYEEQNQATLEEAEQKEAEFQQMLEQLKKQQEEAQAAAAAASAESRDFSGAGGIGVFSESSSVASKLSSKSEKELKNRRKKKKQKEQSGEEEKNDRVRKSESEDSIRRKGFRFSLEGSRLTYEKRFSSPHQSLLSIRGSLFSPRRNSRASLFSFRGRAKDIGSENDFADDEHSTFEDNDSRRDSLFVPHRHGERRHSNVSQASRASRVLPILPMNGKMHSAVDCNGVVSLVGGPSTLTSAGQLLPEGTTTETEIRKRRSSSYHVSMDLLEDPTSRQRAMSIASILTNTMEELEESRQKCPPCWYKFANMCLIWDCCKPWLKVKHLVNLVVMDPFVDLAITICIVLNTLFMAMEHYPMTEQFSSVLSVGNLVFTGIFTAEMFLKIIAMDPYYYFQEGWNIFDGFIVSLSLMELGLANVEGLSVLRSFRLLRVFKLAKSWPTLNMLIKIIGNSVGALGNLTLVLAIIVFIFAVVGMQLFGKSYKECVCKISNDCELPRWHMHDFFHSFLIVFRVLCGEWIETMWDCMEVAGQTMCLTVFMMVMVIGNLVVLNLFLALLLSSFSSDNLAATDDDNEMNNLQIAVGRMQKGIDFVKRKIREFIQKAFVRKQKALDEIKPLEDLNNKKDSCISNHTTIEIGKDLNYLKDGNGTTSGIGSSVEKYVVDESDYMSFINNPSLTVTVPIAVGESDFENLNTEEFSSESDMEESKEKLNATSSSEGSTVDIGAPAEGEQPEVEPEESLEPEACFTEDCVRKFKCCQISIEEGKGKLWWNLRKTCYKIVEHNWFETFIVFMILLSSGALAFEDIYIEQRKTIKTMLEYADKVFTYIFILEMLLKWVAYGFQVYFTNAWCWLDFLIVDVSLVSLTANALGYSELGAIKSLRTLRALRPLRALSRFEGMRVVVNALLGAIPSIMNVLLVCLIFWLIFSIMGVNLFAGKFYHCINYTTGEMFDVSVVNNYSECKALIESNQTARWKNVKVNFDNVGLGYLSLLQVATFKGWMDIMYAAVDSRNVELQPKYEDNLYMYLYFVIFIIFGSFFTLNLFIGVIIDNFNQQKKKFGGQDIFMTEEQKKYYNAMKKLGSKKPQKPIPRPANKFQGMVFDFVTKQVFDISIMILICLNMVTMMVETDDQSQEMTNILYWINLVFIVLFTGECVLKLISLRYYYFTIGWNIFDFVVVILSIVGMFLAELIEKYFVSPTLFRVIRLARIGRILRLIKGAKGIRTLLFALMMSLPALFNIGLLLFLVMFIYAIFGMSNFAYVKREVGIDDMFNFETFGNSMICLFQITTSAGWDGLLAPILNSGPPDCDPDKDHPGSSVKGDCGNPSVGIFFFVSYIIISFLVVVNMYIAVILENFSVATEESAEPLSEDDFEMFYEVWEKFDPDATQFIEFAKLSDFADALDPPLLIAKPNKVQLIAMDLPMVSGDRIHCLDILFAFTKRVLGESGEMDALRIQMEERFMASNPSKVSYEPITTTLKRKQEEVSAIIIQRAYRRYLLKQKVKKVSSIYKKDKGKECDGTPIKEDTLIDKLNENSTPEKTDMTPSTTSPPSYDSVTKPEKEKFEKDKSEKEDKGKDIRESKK
structure (smiles),measurement,setting,value
CSCC[C@@H]1NC(=O)[C@H](Cc2ccc(O)cc2)NC(=O)[C@H](CCCNC(=N)N)NC(=O)[C@@H](NC(=O)[C@@H](N)CC(=O)O)CSSC[C@@H]2NC(=O)[C@@H]3CSSC[C@@H](C(=O)N[C@@H](C)C(=O)N[C@@H](Cc4c[nH]c5ccccc45)C(=O)N[C@@H](CC(=O)O)C(=O)N[C@@H](Cc4ccccc4)C(=O)N[C@H](C(=O)N[C@@H](Cc4ccccc4)C(=O)N[C@H](C(=O)O)[C@@H](C)O)[C@@H](C)O)NC(=O)[C@H](Cc4ccc(O)cc4)NC(=O)[C@H](CCCCN)NC(=O)[C@H](CCSC)NC(=O)[C@H](CCCCN)NC(=O)[C@H](CCCNC(=N)N)NC(=O)[C@H](CCCCN)NC(=O)[C@H](CSSC[C@H](NC(=O)[C@H](CC(=O)O)NC(=O)CNC(=O)[C@H](Cc4ccccc4)NC1=O)C(=O)N[C@@H](CCC(=O)O)C(=O)N[C@@H](CCCCN)C(=O)N[C@@H](CC(=O)O)C(=O)N[C@@H](CCC(=O)O)C(=O)N[C@@H](CC(=O)O)C(=O)N3)NC(=O)CNC(=O)[C@H](CC(C)C)NC(=O)[C@H](Cc1cnc[nH]1)NC(=O)[C@H](CCCCN)NC2=O,IC50,[1],140 nM
same,IC50,[2],1.5 nM
same,IC50,[3],120 nM
Cc1nn([C@@H]2CCN([C@H](C)c3cc(Cl)cc(Cl)c3)C2)c2cc(F)c(C(=O)NS(=O)(=O)C3CC3)cc12,Kd,[4],620 nM
same,Kd,[5],460 nM
same,Ratio,[6],34
same,Kd,[7],22000 nM
same,Ratio,[8],2.3
same,Kd,[9],110 nM
same,concentration,[10],67.9 µM
same,concentration,[11],49.3 µM
same,fraction unbound,[12],0.007
same,Ratio,[13],25
same,Kd,[14],47 nM
same,concentration,[15],31.1 µM
same,Kd,[16],140 nM
same,Ratio Ki,[17],2.1
same,Ratio,[18],3.3
same,Kd,[19],14 nM
same,concentration,[20],49.3 µM
same,Ratio,[21],25
same,concentration,[22],49.3 µM
same,Ratio Ki,[23],28
same,Ratio Ki,[24],6.4
same,Ratio,[25],16
same,Ratio,[26],25
same,Ratio Ki,[27],21
same,Ratio,[28],6.2
same,Ratio Ki,[29],5
same,Ratio,[30],5
same,Kd,[31],140 nM
same,Ratio,[32],5.7
same,Ratio Ki,[33],6.4
COc1cc(-c2cc(F)cc(Cl)c2)c(F)cc1-n1c(=O)ccc2cc(S(=O)(=O)Nc3ccon3)ccc21,Ratio IC50,[34],> 4300
same,IC50,[1],> 14000 nM
same,IC50,[1]; hek293,> 14000 nM
same,Ratio,[35],5.3 and 4
same,IC50,[36],> 14000 nM
same,IC50,[36]; hek293,> 14000 nM
same,IC50,[2],8600 nM and > 42000 nM
same,Fu,[12],0.014
same,fraction unbound,[12],0.0017
same,IC50,[37],> 14000 nM
same,IC50,[37]; hek293,> 14000 nM
same,IC50,[38],1300 nM and > 10000 nM
same,Ratio IC50,[39],> 4300
same,Ratio IC50,[40],> 4300
same,Ratio IC50,[41],> 4300
same,IC50,[42],> 14000 nM
same,IC50,[42]; hek293,> 14000 nM
same,Ratio,[43],21
O=C1N(Cc2ccc(C(F)(F)F)o2)c2ccccc2[C@]12COc1cc3c(cc12)OCO3 [FUNAPIDE],Ratio IC50,[44],11
same,Ratio IC50,[45],3.1
same,IC50,[3],600 nM
same,Ratio IC50,[46],89
same,IC50,[37],84 nM
same,IC50,[47],54 nM
same,IC50,[38],170 nM
same,Ratio IC50,[39],1.5
same,IC50,[48],4800 nM

# Source: ChEMBL document CHEMBL4321785, “Challenges and Opportunities for Therapeutics Targeting the Voltage-Gated Sodium Channel Isoform NaV1.7” (J Med Chem, 2019)
